Several values for one entry are separate records, joined by “and”; a condition that tells them apart may be missing. Identical values can stand only once. Counter-ions that a name gives are not always drawn. Activity calls are given as the source filed them.
Assays:
[1] = molecular target: T1, Heat shock factor protein 1 (Mus musculus, UniProt P38532); experiment: enhancement of HSF1-driven luciferase signal – cell-based, NIH3T3, luminescence, dose retest, confirmation (AID 435004); assay type: functional;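 note: stress induced by proteasome inhibitor MG132 added 30 min after compound; luciferase reporter driven by HSF1 response element in NIH3T3 cells; actives raise luminescence as potentiators of the MG132 stress response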
T1 sequence (P38532 whole entry): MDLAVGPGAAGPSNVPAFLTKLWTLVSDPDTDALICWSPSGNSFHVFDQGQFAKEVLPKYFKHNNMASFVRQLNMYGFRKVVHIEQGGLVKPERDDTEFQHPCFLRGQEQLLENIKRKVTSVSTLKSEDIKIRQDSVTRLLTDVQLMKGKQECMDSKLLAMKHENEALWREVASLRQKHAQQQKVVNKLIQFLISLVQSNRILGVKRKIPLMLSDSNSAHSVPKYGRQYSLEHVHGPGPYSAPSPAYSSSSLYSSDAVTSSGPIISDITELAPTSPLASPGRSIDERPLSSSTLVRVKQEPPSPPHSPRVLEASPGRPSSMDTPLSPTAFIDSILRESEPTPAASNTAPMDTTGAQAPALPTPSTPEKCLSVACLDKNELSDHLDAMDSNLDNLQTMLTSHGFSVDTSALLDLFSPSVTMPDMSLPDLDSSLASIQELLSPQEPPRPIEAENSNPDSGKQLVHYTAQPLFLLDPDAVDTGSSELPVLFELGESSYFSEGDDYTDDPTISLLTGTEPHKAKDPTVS

[2] = luciferase reporter signal suppression in cells – H4 neuroglioma cells, luminescence, dose response (AID 1990); assay type: functional, cell-based
[3] = tested on: Streptococcus sp. 'group A'; experiment: Streptococcus pyogenes SK(-)GAS viability under kanamycin – luminescence, BacTiterGlo, confirmation, counter-screen for streptokinase expression inhibitor project, dose response (AID 1900); assay type: functional, organism-based
[4] = Luminescence Cell-Based Dose Response HTS to Identify Inhibitors of 5'UTR Stem-Loop Driven Prion Protein mRNA Translation in H4 Neuroglioblastoma Cells. [Related pubchem assays: 1827 (Project Summary), 1813 (Primary HTS)]; assay type: functional
Streptokinase A = molecular target: T2, Streptokinase A (Streptococcus pyogenes serotype M1, UniProt P10520); experiment: viability-normalized secreted streptokinase activity reduction – plasminogen activation absorbance, OD405, dose response (AID 1914); assay type: functional, Streptococcus pyogenes M1 GAS;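 note: secreted streptokinase activity via plasminogen activation per viability signal from cell pellet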
T2 sequence (P10520 whole entry): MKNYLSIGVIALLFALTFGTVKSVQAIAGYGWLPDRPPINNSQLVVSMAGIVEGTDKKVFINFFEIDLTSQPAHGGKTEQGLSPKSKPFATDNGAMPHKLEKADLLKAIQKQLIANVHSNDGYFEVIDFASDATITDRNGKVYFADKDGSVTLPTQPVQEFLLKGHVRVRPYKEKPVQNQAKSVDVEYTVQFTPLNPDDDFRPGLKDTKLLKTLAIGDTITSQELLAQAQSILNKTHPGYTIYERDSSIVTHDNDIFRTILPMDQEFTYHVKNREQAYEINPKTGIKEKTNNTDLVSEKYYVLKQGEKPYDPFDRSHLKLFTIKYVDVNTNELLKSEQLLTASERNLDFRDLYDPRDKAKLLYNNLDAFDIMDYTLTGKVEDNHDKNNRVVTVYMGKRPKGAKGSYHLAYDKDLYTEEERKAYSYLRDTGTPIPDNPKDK

[5] = alpha-synuclein stem-loop luciferase translation blockers – H4 neuroglioma cells, luminescence, confirmation (AID 1988); assay type: functional, cell-based
Streptococcus = experiment: GAS UMAA2166 growth inhibition – luminescence, BacTiterGlo, counter-screen for streptokinase expression inhibitor project, dose response (AID 1915); assay type: functional, organism-based;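 note: potency for reduction of bacterial viability or growth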
Cytochrome P450 3A4 = Cytochrome P450 3A4 (Homo sapiens, UniProt P08684);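 note: CYP3A4 tested as one member of a cytochrome P450 panel screen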
Cytochrome P450 3A4, sequence (P08684 whole entry): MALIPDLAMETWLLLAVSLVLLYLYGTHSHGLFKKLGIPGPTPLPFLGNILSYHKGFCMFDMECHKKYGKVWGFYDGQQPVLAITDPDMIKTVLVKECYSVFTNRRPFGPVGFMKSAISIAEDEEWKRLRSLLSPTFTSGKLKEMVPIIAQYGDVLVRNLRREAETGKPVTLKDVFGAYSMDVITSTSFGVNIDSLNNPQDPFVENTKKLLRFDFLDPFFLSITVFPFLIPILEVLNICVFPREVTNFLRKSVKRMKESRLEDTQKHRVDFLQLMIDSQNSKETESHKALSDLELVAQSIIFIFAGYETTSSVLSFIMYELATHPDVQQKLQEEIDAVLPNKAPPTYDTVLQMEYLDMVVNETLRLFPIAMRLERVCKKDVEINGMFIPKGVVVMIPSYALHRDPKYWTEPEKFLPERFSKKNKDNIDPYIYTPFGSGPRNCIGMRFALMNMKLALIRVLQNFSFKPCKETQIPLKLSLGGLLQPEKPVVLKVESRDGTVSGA

Cytochrome P450 2D6 = Cytochrome P450 2D6 (Homo sapiens, UniProt P10635);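 note: CYP2D6 member of a cytochrome P450 panel assay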
Cytochrome P450 2D6, sequence (P10635 whole entry): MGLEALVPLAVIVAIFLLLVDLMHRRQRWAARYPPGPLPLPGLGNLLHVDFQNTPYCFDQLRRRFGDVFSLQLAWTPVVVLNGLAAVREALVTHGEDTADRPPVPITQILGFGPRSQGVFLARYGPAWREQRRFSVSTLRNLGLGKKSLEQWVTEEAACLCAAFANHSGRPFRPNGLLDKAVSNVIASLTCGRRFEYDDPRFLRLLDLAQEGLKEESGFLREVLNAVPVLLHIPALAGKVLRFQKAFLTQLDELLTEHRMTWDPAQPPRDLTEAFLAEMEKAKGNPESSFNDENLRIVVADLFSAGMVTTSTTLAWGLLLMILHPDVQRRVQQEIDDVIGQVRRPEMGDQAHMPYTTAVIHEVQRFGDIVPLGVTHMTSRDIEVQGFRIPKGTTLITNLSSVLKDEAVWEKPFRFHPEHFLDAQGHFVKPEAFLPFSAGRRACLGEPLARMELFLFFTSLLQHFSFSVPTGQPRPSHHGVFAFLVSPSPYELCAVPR

Paired box protein Pax-8 = Paired box protein Pax-8 (Homo sapiens, UniProt Q06710); experiment: PAX8 transcriptional activity inhibition in RMG-I – RMG-I cells, luciferase, cherry-pick, dose response (AID 687027); assay type: functional, cell-based;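 note: luciferase reporter driven by Pax8 target thyroperoxidase promoter measured by SteadyGlo luminescence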
Paired box protein Pax-8, sequence (Q06710 whole entry): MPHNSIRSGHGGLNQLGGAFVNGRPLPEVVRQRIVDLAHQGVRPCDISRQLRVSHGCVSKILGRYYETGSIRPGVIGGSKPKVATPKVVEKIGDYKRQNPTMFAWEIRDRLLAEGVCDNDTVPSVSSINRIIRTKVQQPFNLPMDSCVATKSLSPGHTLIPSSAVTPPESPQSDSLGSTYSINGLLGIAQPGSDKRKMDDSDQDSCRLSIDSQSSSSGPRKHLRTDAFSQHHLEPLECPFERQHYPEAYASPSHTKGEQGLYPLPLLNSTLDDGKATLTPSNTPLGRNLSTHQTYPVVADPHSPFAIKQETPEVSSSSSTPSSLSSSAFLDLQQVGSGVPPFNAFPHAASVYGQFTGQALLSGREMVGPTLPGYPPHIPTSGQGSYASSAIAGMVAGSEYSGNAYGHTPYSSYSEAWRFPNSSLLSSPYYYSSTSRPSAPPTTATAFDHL

H9c2 = experiment: cells; assay type: functional, cell-based; conditions: Rattus norvegicus, H9c2, Myocardium;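 note: confirmatory concentration-response retest of ultra-high-throughput screening hits for modulation of myocardial damage; cell death induced by hydrogen peroxide oxidative stress; compound pretreatment for 60 min then peroxide exposure for 2 h; potency is for protecting the cells against peroxide damage rather than for killing them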
Cytochrome P450 1A2 = molecular target: T3, Cytochrome P450 1A2 (Homo sapiens, UniProt P05177);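 note: PubChem cytochrome P450 panel assay, CYP1A2 panel member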
T3 sequence (P05177 whole entry): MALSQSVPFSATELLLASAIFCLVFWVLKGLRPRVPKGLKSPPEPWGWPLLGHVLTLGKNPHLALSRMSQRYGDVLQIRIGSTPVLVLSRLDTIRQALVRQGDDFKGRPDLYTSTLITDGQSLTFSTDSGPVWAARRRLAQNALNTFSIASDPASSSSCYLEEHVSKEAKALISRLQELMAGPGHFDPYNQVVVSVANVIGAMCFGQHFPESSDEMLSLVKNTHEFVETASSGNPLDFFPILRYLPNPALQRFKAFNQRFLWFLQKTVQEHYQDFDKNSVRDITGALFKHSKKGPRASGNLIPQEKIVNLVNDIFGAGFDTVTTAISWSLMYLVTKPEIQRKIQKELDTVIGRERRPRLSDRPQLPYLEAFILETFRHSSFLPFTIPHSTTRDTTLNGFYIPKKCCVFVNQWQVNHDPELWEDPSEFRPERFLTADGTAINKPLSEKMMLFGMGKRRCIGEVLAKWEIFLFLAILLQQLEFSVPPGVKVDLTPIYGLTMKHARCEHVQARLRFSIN

Cytochrome P450 2C19 = Cytochrome P450 2C19 (Homo sapiens, UniProt P33261); experiment: Cytochrome panel assay with activity outcomes. Panel member name: p450-cyp2c19 Compounds with AC50 equal or less than 10 uM are considered active; assay type: functional
Cytochrome P450 2C19, sequence (P33261 whole entry): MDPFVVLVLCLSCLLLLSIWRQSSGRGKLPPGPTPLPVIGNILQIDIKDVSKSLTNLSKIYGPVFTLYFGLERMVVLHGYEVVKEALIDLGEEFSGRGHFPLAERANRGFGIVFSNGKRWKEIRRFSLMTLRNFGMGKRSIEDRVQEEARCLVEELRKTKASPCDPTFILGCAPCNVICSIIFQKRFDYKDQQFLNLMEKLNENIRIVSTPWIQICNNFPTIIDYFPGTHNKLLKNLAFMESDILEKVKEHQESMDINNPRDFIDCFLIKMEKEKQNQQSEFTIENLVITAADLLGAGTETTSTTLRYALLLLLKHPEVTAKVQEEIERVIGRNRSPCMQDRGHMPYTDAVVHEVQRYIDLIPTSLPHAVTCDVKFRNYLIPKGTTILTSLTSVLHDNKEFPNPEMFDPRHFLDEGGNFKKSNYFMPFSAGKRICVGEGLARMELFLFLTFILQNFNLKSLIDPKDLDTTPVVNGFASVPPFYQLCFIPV

Cytochrome P450 2C9 = Cytochrome P450 2C9 (Homo sapiens, UniProt P11712)
Cytochrome P450 2C9, sequence (P11712 whole entry): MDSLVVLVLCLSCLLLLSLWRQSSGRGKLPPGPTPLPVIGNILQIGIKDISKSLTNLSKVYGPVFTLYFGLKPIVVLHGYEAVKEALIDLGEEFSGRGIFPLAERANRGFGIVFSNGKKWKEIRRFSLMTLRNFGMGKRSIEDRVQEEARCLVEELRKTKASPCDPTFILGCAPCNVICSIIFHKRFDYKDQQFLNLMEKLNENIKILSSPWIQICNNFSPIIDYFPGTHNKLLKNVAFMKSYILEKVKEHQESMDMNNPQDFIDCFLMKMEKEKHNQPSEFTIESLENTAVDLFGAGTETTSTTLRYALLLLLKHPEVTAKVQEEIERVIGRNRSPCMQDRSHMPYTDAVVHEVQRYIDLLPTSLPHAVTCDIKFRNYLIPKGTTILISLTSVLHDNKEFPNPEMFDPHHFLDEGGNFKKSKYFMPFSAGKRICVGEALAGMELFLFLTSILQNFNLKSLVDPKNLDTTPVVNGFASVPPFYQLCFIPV

[6] = reduction of Shn3 3'UTR-driven luciferase in osteoblasts – cell-based, Clone20 osteoblasts, firefly luciferase, cherry-picked, dose response (AID 624132); assay type: functional;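 note: firefly luciferase luminescence from reporter carrying the Shn3 3'UTR in osteoblasts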
[7] = viability of uninfected HEp-2 cells – cell-based, HTS, cytotoxicity control for RSV inhibitor project, dose response (AID 2410); assay type: functional; conditions: human respiratory syncytial virus

CCOC(=O)COc1ccc(/C=C2/S/C(=N/c3ccccc3)N(Cc3cccnc3)C2=O)cc1OC
EC50 [1]: 31.7 µM (active)

Nc1c(Cl)cc(C2=NCCn3c2c2ccc([N+](=O)[O-])cc2[n+]3[O-])cc1Cl
EC50 [2]: 14.7 µM (active)
EC50 [3]: 2 µM (active)
EC50 [4]: > 120 µM (not active)
EC50 (Streptokinase A): > 150 µM (not active)
EC50 [5]: 8.15 µM (active)
EC50 (Streptococcus): 5.67 µM (active)

CC1=Nc2ccccc2/C1=C/c1nc(-c2ccc(C)s2)oc1O
EC50 [1]: 21.4 µM (active)

COc1ccc(CNc2nc(-c3ccc(N(C)C)cc3)nc3ccccc23)c(OC)c1
AC50 (Cytochrome P450 3A4): 5.01 µM (inconclusive)
AC50 (Cytochrome P450 2D6): 25.1 µM (inconclusive)

Cn1c2ccc(F)cc2c2ncn(CCN3CCOCC3)c(=O)c21
EC50 [1]: > 260 µM (inactive)

CC(=O)OC(C)(C)/C=C/C(=O)[C@](C)(O)C1[C@H](O)C[C@@]2(C)C3CC=C4C(C=C(O[C@@H]5O[C@H](CO)[C@@H](O)[C@H](O)[C@H]5O)C(=O)C4(C)C)[C@]3(C)C(=O)C[C@]12C (stereo partly specified)
AC50 (Paired box protein Pax-8): 7.14 µM (active)

COc1ccc(NC(=O)N(C)[C@H]2C[C@H]3c4[nH]c5ccc(-c6ccc7c(c6)OCO7)cc5c4CCN3C[C@H]2[C@H](C)O)cc1
IC50 (H9c2): > 79 µM (inactive)

CC1=CC(=O)N(c2cccc(C(F)(F)F)c2)C1c1ccc(Cl)cc1 (stereo unspecified)
AC50 (Cytochrome P450 3A4): 10 µM (inconclusive)
AC50 (Cytochrome P450 1A2): 14.1 µM (inconclusive)

N[C@H](C(=O)O)c1cc(O)cc(O)c1
AC50 (Cytochrome P450 2C19; read-out: AC50): 15.8 µM (inconclusive) and 10 µM (inconclusive)
AC50 (Cytochrome P450 1A2): 31.6 µM (inconclusive)

COC(=O)Sc1nc(N2CCOCC2)c2c(c1C#N)CC(C)(C)OC2
IC50 (H9c2): 38.6 µM (inactive)

COc1ccccc1OCC(=O)Nc1cccc(-c2nnc(-c3ccco3)o2)c1
IC50 (H9c2): > 79 µM (inactive)

C[C@H](NC(=O)[C@@H]1CSC2c3ccccc3C(=O)N21)C(=O)NCCc1ccccc1 (stereo partly specified)
EC50 [1]: 248 µM (active)

Cc1ccc(S(=O)(=O)N/N=C/c2cccn2-c2ccc(Cl)cc2)cc1
AC50 (Cytochrome P450 2C9): 12.6 µM (inconclusive)
AC50 (Cytochrome P450 2C19; read-out: AC50): 0.0501 µM (inconclusive)
AC50 (Cytochrome P450 1A2): 12.6 µM (inconclusive)

Brc1ccc2c(c1)C(c1cccnc1)=NNC(c1cccs1)=N2
EC50 [1]: 93.6 µM (active)

Nc1ccc(Sc2cc(Cl)nc(N)n2)cc1
EC50 [2]: > 120 µM (not active)
EC50 [4]: > 120 µM (not active)
EC50 [5]: 99.5 µM (active)

O=C(NCC1CCCO1)C1CCC(=O)N1CCc1ccccc1 (stereo unspecified)
AC50 (Cytochrome P450 2C19; read-out: AC50): 7.08 µM (inconclusive)

Cc1ccc(NC(=NOCc2ccc(Cl)cc2Cl)c2nonc2N)c(C)c1
EC50 [1]: > 260 µM (inactive)

CC(=O)Nc1cccc(-c2cc(NC=O)c3ncc(-c4ccc(C(C)=O)cc4)n3c2)c1
IC50 (H9c2): 11.2 µM (active)

COc1cc(NC(=O)c2cc3c(Cl)nc4ccccc4c3s2)cc(OC)c1OC
AC50 [6]: 24.4 µM (active)

COC(=O)c1ccccc1NC(=O)CSc1nc(Nc2ccccc2)nc(N2CCOCC2)n1
EC50 [1]: > 260 µM (inactive)

COc1ccc(C2C(C(=O)N3CCOCC3)CCC(=O)N2c2ccc(OC)cc2)cc1 (stereo unspecified)
AC50 (Cytochrome P450 3A4): 17.8 µM (inconclusive)
AC50 (Cytochrome P450 1A2): 0.0631 µM (inconclusive)

O=C(NC12CC3CC(CC(C3)C1)C2)N1CCN(c2nc(-c3ccccc3)cs2)CC1
AC50 (Cytochrome P450 3A4): 11.2 µM (inconclusive)
AC50 (Cytochrome P450 1A2): 6.31 µM (inconclusive)

CCn1cnc2c1c(=O)n(Cc1nnc3n1-c1ccccc1SC3)c(=O)n2Cc1ccccc1
EC50 [1]: > 260 µM (inactive)

C=CC[C@@H](CC(=O)N[C@H](CO)Cc1ccccc1)C(=O)N[C@H](COC(=O)[C@@H](CC=C)Cc1ccc(F)cc1)Cc1c[nH]c2ccccc12
AC50 (Paired box protein Pax-8): 8.96 µM (active)

Cc1ccc(-c2csc(NC(=O)Cn3[nH]c(=O)c4ccccc4c3=O)n2)cc1
IC50 (H9c2): > 79 µM (inactive)

COc1cc(C(=O)Nc2ccc(S(=O)(=O)N3CCc4ccccc43)cc2)cc(OC)c1OC
EC50 [1]: > 260 µM (inactive)

CC(C)NCC(O)COc1cccc2ccccc12 (stereo unspecified) [PROPRANOLOL HYDROCHLORIDE]
AC50 [6]: 23.6 µM (active)

CCOC(=O)c1cnc(Nc2nc3ccccc3o2)nc1CSc1nnc(C)s1
IC50 (H9c2): 13.4 µM (active)

O=C1c2ccccc2NC(c2ccc3c(c2)OCO3)N1O (stereo unspecified)
AC50 (Cytochrome P450 3A4): 22.4 µM (inconclusive)
AC50 (Cytochrome P450 2C9): 14.1 µM (inconclusive)
AC50 (Cytochrome P450 2D6): 14.1 µM (inconclusive)

Cc1nc2cncnc2n(Cc2ccc(F)cc2)c1=O
AC50 (Cytochrome P450 3A4): 15.8 µM (inconclusive)
AC50 (Cytochrome P450 2C9): 25.1 µM (inconclusive)
AC50 (Cytochrome P450 2C19; read-out: AC50): 39.8 µM (inconclusive)

O=C(CC(c1ccco1)S(=O)(=O)c1ccccc1)c1ccc(F)cc1 (stereo unspecified)
EC50 [1]: > 260 µM (inactive)

COc1nccc(-c2c(-c3ccc(F)cc3)ncn2C2CCC(O)CC2)n1 (stereo unspecified)
AC50 (Cytochrome P450 2C9): 7.94 µM (inconclusive)
AC50 (Cytochrome P450 2C19; read-out: AC50): 7.94 µM (inconclusive)
AC50 (Cytochrome P450 1A2): 31.6 µM (inconclusive)
AC50 (Cytochrome P450 2D6): 12.6 µM (inconclusive)

COC(=O)C1=C(C)n2nnnc2NC1c1ccc(Cl)cc1 (stereo unspecified)
EC50 [2]: 20.6 µM (active)
EC50 [4]: > 120 µM (not active)
EC50 [5]: > 120 µM (not active)

O=c1c2ccccc2nnn1CSc1ncnc2ccccc12
EC50 [1]: 10.7 µM (active)

Cc1ccc(C)c(Nc2c([N+](=O)[O-])ccc3nonc23)c1
EC50 [2]: 19.9 µM (active)
EC50 [4]: > 120 µM (not active)
EC50 [5]: 53.7 µM (active)

C[C@@H]1OC=C2[C@@H](O)[C@H]3O[C@H]3C(=O)[C@]23[C@@H]2O[C@H](C)C(C4=C2[C@@H](O)[C@H]2O[C@@H]2C4=O)[C@@H]13
AC50 (Cytochrome P450 2C19): inconclusive

OCCN1CCN(c2nc(N3CCCCC3)nc(N3CCCCC3)n2)CC1
AC50 (Cytochrome P450 3A4): 14.1 µM (inconclusive)
AC50 (Cytochrome P450 2C9): 15.8 µM (inconclusive)
AC50 (Cytochrome P450 2C19; read-out: AC50): 39.8 µM (inconclusive)

C=CCNC(=S)N/N=C/c1ccc(-c2ccc(Br)cc2)o1
EC50 [1]: 134 µM (active)

CN(C)S(=O)(=O)c1ccc(Cl)c(NC(=O)CN2CCCCCC2)c1
EC50 [2]: > 120 µM (not active)
EC50 [4]: > 120 µM (not active)
EC50 [5]: > 120 µM (not active)

Cc1nn2c(-c3cccc(NC(=O)c4ccco4)c3)nnc2c2ccccc12
IC50 (H9c2): > 79 µM (inactive)

COc1ccc(/C=N/NC(=O)c2ccco2)cc1Cn1nc(C)c([N+](=O)[O-])c1C
EC50 [2]: > 120 µM (not active)
EC50 [4]: > 120 µM (not active)
EC50 [5]: > 120 µM (not active)

COc1ccc(Br)cc1C(=O)Nc1cccc(NC(=O)c2ccco2)c1
CC50 [7]: 29.1 µM (active)
IC50 (H9c2): > 79 µM (inactive)

COC(=O)C1(CC(C)C)C=C2C(=C(c3ccccc3)C(=O)C2C)CN1 (stereo unspecified)
AC50 (Cytochrome P450 3A4): 25.1 µM (inconclusive)
AC50 (Cytochrome P450 1A2): 15.8 µM (inconclusive)

From ChEMBL document CHEMBL1201862, “PubChem BioAssay data set” (2004)
